# Measured values published in the supplement of paper PMC10307832.
# How the values were obtained:
# Experiment in all cases: relative viability (nuclei count vs DMSO), 5 days (fraction); higher = more cells survive
# [1] = compound: C/C(=N\NC(=S)N1CCC1)/C2=CC=CC=N2
# Method in brief: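 Five library-drug doses, separated by factors of √10, were pinned into 1536-well plates holding lung cancer cell lines after an overnight stay at 37 °C. Cells were fixed, permeabilised and Hoechst-stained in one step after 5 days without medium change, then imaged at 4×. Viability compares treated-well with vehicle-well nuclei, counted in MetaXpress, as a median across plates. Passing plates had control CV below 25% and at least one doubling.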
# [2] = compound: C/C(=N\NC(=S)N1CCC1)/C2=CC=CC=N2 + CC(C)C[C@H](NC(=O)[C@H](Cc1ccccc1)NC(=O)c1cnccn1)B(O)O [Bortezomib] (partner 0.002 µM)
# Method in brief: (§1)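 Lung cancer cell lines, seeded in 1536-well plates, were treated the following day by pin tool with a single drug or with five library-drug doses (not always all listed) in √10 steps on top of a fixed anchor-drug dose. Cells were fixed and nuclei stained in one step after 5 days, and nuclei were counted. Relative viability is the nuclei count for treated wells divided by that for vehicle wells, reported as medians of duplicate plates.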
# [3] = compound: C/C(=N\NC(=S)N1CCC1)/C2=CC=CC=N2 + O=C(c1cc(Cc2n[nH]c(=O)c3ccccc23)ccc1F)N1CCN(C(=O)C2CC2)CC1 [Olaparib] (partner 8 µM)
# Method in brief: as §1
# [4] = compound: C/C(=N\NC(=S)N1CCC1)/C2=CC=CC=N2 + CS(=O)(=O)CCNCc1ccc(-c2ccc3ncnc(Nc4ccc(OCc5cccc(F)c5)c(Cl)c4)c3c2)o1 [Lapatinib] (partner 2 µM)
# Method in brief: as §1
# [5] = compound: C/C(=N\NC(=S)N1CCC1)/C2=CC=CC=N2 + COc1cc2c(Oc3ccc(NC(=O)C4(C(=O)Nc5ccc(F)cc5)CC4)cc3F)ccnc2cc1OCCCN1CCOCC1 [Foretinib] (partner 0.25 µM)
# Method in brief: as §1
# [6] = compound: C/C(=N\NC(=S)N1CCC1)/C2=CC=CC=N2 + C[C@@H](Oc1cc(-c2cnn(C3CCNCC3)c2)cnc1N)c1c(Cl)ccc(F)c1Cl [Crizotinib] (partner 1 µM)
# Method in brief: as §1
# [7] = compound: C/C(=N\NC(=S)N1CCC1)/C2=CC=CC=N2 + CC1(C)CCC(c2ccc(Cl)cc2)=C(CN2CCN(c3ccc(C(=O)NS(=O)(=O)c4ccc(N[C@H](CCN5CCOCC5)CSc5ccccc5)c(S(=O)(=O)C(F)(F)F)c4)cc3)CC2)C1 [Navitoclax] (partner 0.5 µM)
# Method in brief: as §1
# [8] = compound: C/C(=N\NC(=S)N1CCC1)/C2=CC=CC=N2 + C[C@]1(O)C[C@@H](c2nc(-c3ccc4ccc(-c5ccccc5)nc4c3)c3c(N)nccn32)C1 [Linsitinib] (partner 1 µM)
# Method in brief: as §1
# [9] = compound: C/C(=N\NC(=S)N1CCC1)/C2=CC=CC=N2 + Cc1nc(NC(=O)N2CCC[C@H]2C(N)=O)sc1-c1ccnc(C(C)(C)C(F)(F)F)c1 [Alpelisib] (partner 2 µM)
# Method in brief: as §1
# [10] = compound: C/C(=N\NC(=S)N1CCC1)/C2=CC=CC=N2 + CS(=O)(=O)N1CCN(Cc2cc3nc(-c4cccc5[nH]ncc45)nc(N4CCOCC4)c3s2)CC1 [Pictilisib] (partner 1 µM)
# Method in brief: as §1
# [11] = compound: C/C(=N\NC(=S)N1CCC1)/C2=CC=CC=N2 + N=C(N)NC(=N)NCCc1ccccc1 [Phenformin] (partner 250 µM)
# Method in brief: as §1
# [12] = compound: C/C(=N\NC(=S)N1CCC1)/C2=CC=CC=N2 + Nc1ncn([C@H]2C[C@H](O)[C@@H](CO)O2)c(=O)n1 [Decitabine] (partner 2 µM)
# Method in brief: as §1
cell line,measurement,setting,value
Calu-6,relative viability,[1]; 0.05 µM,0.118
same,relative viability,[1]; 0.1581 µM,0.147
same,relative viability,[1]; 0.5 µM,0.154
same,relative viability,[1]; 1.581 µM,0.12
same,relative viability,[1]; 5 µM,0.14
same,relative viability,[2]; first compound 0.05 µM,0.165
same,relative viability,[2]; first compound 0.1581 µM,0.182
same,relative viability,[2]; first compound 0.5 µM,0.188
same,relative viability,[2]; first compound 1.581 µM,0.171
same,relative viability,[2]; first compound 5 µM,0.175
same,relative viability,[3]; first compound 0.05 µM,0.101
same,relative viability,[3]; first compound 0.1581 µM,0.133
same,relative viability,[3]; first compound 0.5 µM,0.141
same,relative viability,[3]; first compound 1.581 µM,0.118
same,relative viability,[3]; first compound 5 µM,0.122
same,relative viability,[4]; first compound 0.05 µM,0.132
same,relative viability,[4]; first compound 0.1581 µM,0.146
same,relative viability,[4]; first compound 0.5 µM,0.124
same,relative viability,[4]; first compound 1.581 µM,0.128
same,relative viability,[4]; first compound 5 µM,0.131
same,relative viability,[5]; first compound 0.05 µM,0.0699
same,relative viability,[5]; first compound 0.1581 µM,0.0625
same,relative viability,[5]; first compound 0.5 µM,0.0749
same,relative viability,[5]; first compound 1.581 µM,0.0997
same,relative viability,[5]; first compound 5 µM,0.0865
same,relative viability,[6]; first compound 0.05 µM,0.117
same,relative viability,[6]; first compound 0.1581 µM,0.136
same,relative viability,[6]; first compound 0.5 µM,0.128
same,relative viability,[6]; first compound 1.581 µM,0.109
same,relative viability,[6]; first compound 5 µM,0.102
same,relative viability,[7]; first compound 0.05 µM,0.106
same,relative viability,[7]; first compound 0.1581 µM,0.122
same,relative viability,[7]; first compound 0.5 µM,0.123
same,relative viability,[7]; first compound 1.581 µM,0.141
same,relative viability,[7]; first compound 5 µM,0.126
same,relative viability,[8]; first compound 0.05 µM,0.11
same,relative viability,[8]; first compound 0.1581 µM,0.1
same,relative viability,[8]; first compound 0.5 µM,0.127
same,relative viability,[8]; first compound 1.581 µM,0.115
same,relative viability,[8]; first compound 5 µM,0.108
same,relative viability,[9]; first compound 0.05 µM,0.141
same,relative viability,[9]; first compound 0.1581 µM,0.151
same,relative viability,[9]; first compound 0.5 µM,0.148
same,relative viability,[9]; first compound 1.581 µM,0.151
same,relative viability,[9]; first compound 5 µM,0.124
same,relative viability,[10]; first compound 0.05 µM,0.109
same,relative viability,[10]; first compound 0.1581 µM,0.139
same,relative viability,[10]; first compound 0.5 µM,0.152
same,relative viability,[10]; first compound 1.581 µM,0.141
same,relative viability,[10]; first compound 5 µM,0.132
A549,relative viability,[1]; 0.05 µM,0.0587
same,relative viability,[1]; 0.1581 µM,0.0516
same,relative viability,[1]; 0.5 µM,0.0603
same,relative viability,[1]; 1.581 µM,0.0557
same,relative viability,[1]; 5 µM,0.0345
same,relative viability,[3]; first compound 0.05 µM,0.0312
same,relative viability,[3]; first compound 0.1581 µM,0.0426
same,relative viability,[3]; first compound 0.5 µM,0.0325
same,relative viability,[3]; first compound 1.581 µM,0.0517
same,relative viability,[3]; first compound 5 µM,0.0367
same,relative viability,[4]; first compound 0.05 µM,0.065
same,relative viability,[4]; first compound 0.1581 µM,0.0607
same,relative viability,[4]; first compound 0.5 µM,0.0715
same,relative viability,[4]; first compound 1.581 µM,0.0714
same,relative viability,[4]; first compound 5 µM,0.0609
same,relative viability,[5]; first compound 0.05 µM,0.0523
same,relative viability,[5]; first compound 0.1581 µM,0.0338
same,relative viability,[5]; first compound 0.5 µM,0.0289
same,relative viability,[5]; first compound 1.581 µM,0.0404
same,relative viability,[5]; first compound 5 µM,0.0168
same,relative viability,[6]; first compound 0.05 µM,0.0427
same,relative viability,[6]; first compound 0.1581 µM,0.0518
same,relative viability,[6]; first compound 0.5 µM,0.0568
same,relative viability,[6]; first compound 1.581 µM,0.044
same,relative viability,[6]; first compound 5 µM,0.0637
same,relative viability,[11]; first compound 0.05 µM,0.0324
same,relative viability,[11]; first compound 0.1581 µM,0.034
same,relative viability,[11]; first compound 0.5 µM,0.0226
same,relative viability,[11]; first compound 1.581 µM,0.0286
same,relative viability,[11]; first compound 5 µM,0.0232
same,relative viability,[7]; first compound 0.05 µM,0.0538
same,relative viability,[7]; first compound 0.1581 µM,0.0583
same,relative viability,[7]; first compound 0.5 µM,0.05
same,relative viability,[7]; first compound 1.581 µM,0.0608
same,relative viability,[7]; first compound 5 µM,0.0344
same,relative viability,[8]; first compound 0.05 µM,0.083
same,relative viability,[8]; first compound 0.1581 µM,0.0782
same,relative viability,[8]; first compound 0.5 µM,0.0623
same,relative viability,[8]; first compound 1.581 µM,0.0706
same,relative viability,[8]; first compound 5 µM,0.053
same,relative viability,[12]; first compound 0.05 µM,0.0459
same,relative viability,[12]; first compound 0.1581 µM,0.0345
same,relative viability,[12]; first compound 0.5 µM,0.0375
same,relative viability,[12]; first compound 1.581 µM,0.0441
same,relative viability,[12]; first compound 5 µM,0.0197
same,relative viability,[9]; first compound 0.05 µM,0.0613
same,relative viability,[9]; first compound 0.1581 µM,0.0588
same,relative viability,[9]; first compound 0.5 µM,0.054
same,relative viability,[9]; first compound 1.581 µM,0.0318
same,relative viability,[9]; first compound 5 µM,0.0406
same,relative viability,[10]; first compound 0.05 µM,0.0548
same,relative viability,[10]; first compound 0.1581 µM,0.0774
same,relative viability,[10]; first compound 0.5 µM,0.0703
same,relative viability,[10]; first compound 1.581 µM,0.0543
same,relative viability,[10]; first compound 5 µM,0.0578
